# Measured values taken from PMC7801115, “Preclinical in vitro screening of newly synthesised amidino substituted benzimidazoles and benzothiazoles” (Journal of Enzyme Inhibition and Medicinal Chemistry, 2021).
# Columns and labels:
# NCI-H358 [1] = assay: BrdU proliferation assay, 2D cell culture; assay type: cell-based; settings: Homo sapiens, NCI-H358, 2D cell culture, ±SD, N = 2
# Description: (§1) Cells were grown in 96 well cell star polystyrene plates. 10,000 cells/well were seeded in wells 4 h prior the treatment with different compounds concentrations and incubated for 72 h. A cell viability assay was performed according to the manufacturer’s instruction, using CellTiter 96 aqueous solution, MTS kit (Promega, Madison, WI, USA). After 0.5–2 h of cell incubation with MTS in 2 D cell culture, the plates were read using PE EnVision absorbance at 490 nm. […] Since we prefer homogeneous assays (mix and read procedures) and therefore MTS is more practical (one step less than MTT). MTS is more sensitive and accurate in comparison with MTT assay.
# (§2) Proliferation assay was performed using Cell Proliferation ELISA, BrdU (Sigma, St. Louis, MO, USA). Briefly, 48 h hours after compound addition, 10 µM of BrdU was added to each well and incubated for following 24 h. After incubation, single cell suspension was made for 3 D cell culture in the new 96 well plate. Plates were centrifuged and supernatants were removed from each plate (for 2 D and 3 D cell culture) followed by 60 min incubation at 60° C. The rest of the proliferation assay was performed according to the manufacturer instructions.
# (§3) Calculation of IC50 data, curves and QC analysis is made by using Excel tools and GraphPadPrism software (La Jolla, CA), v. […] QC criteria parameters (Z', S:B, R2, HillSlope) were checked for every IC50 curve.
# HCC827 [2] = assay: BrdU proliferation assay, 2D cell culture; assay type: cell-based; settings: Homo sapiens, HCC827, 2D cell culture, ±SD, N = 2
# Description: as §1, §2, §3
# NCI-H358 [3] = assay: Cell viability assay, 3D hanging drop cell culture (CellTiter GLO 3D); assay type: cell-based; settings: Homo sapiens; NCI-H358, 3D hanging drop cell culture, 72 h; ±SD, N = 2; read-out: IC50 antitumor activity NCI-H358 3D
# Description: (§4) Compounds are diluted 1:3. 500 nL (for 2 D cell culture) or 400 nL (for 3 D cell culture) of compound were transferred from mother plate to test plate by using Mosquito (TTP labtech). DMSO percentage in test concentrations was 0.5 − 1.0%. Starting concentration of the test compounds and standard compound doxorubicin was 50 µM (2 D cell culture) or 100 µM (3 D cell culture).
# (§5) Cells were grown in 96 well Perfecta 3 D hanging drop plates 5000 cell/well for 4 days until spheres were formed (and checked under the microscope). After sphere formation cells were treated with compounds followed by 72 h incubation. Cell viability assay was performed according to the manufacturer’s instruction, using CellTiter GLO 3 D for 3 D cell culture (Promega); cell incubation was 5 min on the shaker followed by 25 min incubation in the dark. Plates were read using PE EnVision luminescence.
# as §3
# A549 = assay: as above; assay type: cell-based; settings: Homo sapiens; A549, 3D hanging drop cell culture, 72 h; ±SD, N = 2; read-out: IC50 antitumor activity A549 3D
# Description: as §4, §5, §3
# HCC827 [4] = assay: as above; assay type: cell-based; settings: Homo sapiens; HCC827, 3D hanging drop cell culture, 72 h; ±SD, N = 2; read-out: IC50 antitumor activity HCC827 3D
# Description: as §4, §5, §3
# [5] = system: P-glycoprotein (human MDR1); assay: MDCKII-MDR1 permeability and P-glycoprotein substrate assay; assay type: in vitro ADME, canine cells over-expressing human MDR1; settings: dog; for efflux ratio at 60 min, 10 µM: MDCK-MDR1, pH 7.4, without P-gp inhibitor; for Papp A→B at 60 min, 10 µM / Papp B→A at 60 min, 10 µM: MDCK-MDR1, pH 7.4, without P-gp inhibitor; for Papp A→B at 60 min, 10 µM: read-out: MDCKII-MDR1 Papp(A2B); for Papp B→A at 60 min, 10 µM: read-out: MDCKII-MDR1 Papp(B2A)
# Description: Permeability and P-glycoprotein substrate assessment was done on MDCKII-hMDR1, Madin-Darby canine epithelial cells over-expressing human MDR1 gene, coding for P-glycoprotein.
# Cells were prepared for transport studies by seeding on 96-well cell culture inserts (Millipore, MA, USA) in a concentration of 0.25 × 10^6 cells per ml. The cells were fed with fresh medium 24 h post seeding and cultured to confluence for 3 days before use. On the day of experiment, the cell monolayers were washed and equilibrated with transport medium (DPBS, pH 7.4 containing 1% DMSO) with or without P-gp specific inhibitor, elacridar (2 µM) for 45 min (37 °C, 5% CO2, 95% humidity). Test compound solution consisted of test substance (10 μM) in D-PBS medium containing lucifer yellow (100 μM) and 1% DMSO. Transport assays were conducted in apical to basolateral (A2B) and basolateral to apical (B2A) directions, respectively. Monolayers were incubated with the compound solution for 60 min at 37 °C under gentle agitation. Apical and basolateral compartments were sampled at the end of the transport experiment, while donor solutions were also sampled at the beginning of the experiment in order to determine initial concentration. Test substance concentrations in both compartments were determined by LC-MS/MS. There were several controls used in the assay: 1) amprenavir (0.5 μM) served as a low permeable control, being also a P-gp substrate; 2) diclofenac (10 μM) was used as a high permeable control; 3) Lucifer yellow, a fluorescent marker for the paracellular membrane transport, was used as a control of cell monolayer integrity.
# All ADME samples were analysed on a Sciex API 4000 or Sciex API4500 Triple Quadrupole Mass Spectrometer (Sciex, Framingham, MA, USA) coupled to a UHPLC System (Shimadzu Nexera X2; Shimadzu, Kyoto, Japan). Samples were injected onto an UPLC column (HALO2 C18, 2.1 × 20 mm, 2 µm or Phenomenex Luna Omega Polar C18, 30 × 2.1 mm, 1.6 µm) and eluted with a gradient at temperature of 50 °C. The mobile phase was composed of acetonitrile (with 0.1% formic acid) and 0.1% formic acid in deionised water. A total run time was 1 or 1.5 min, with the flow rate of 0.7 ml/min (under gradient conditions). A positive ion mode with turbo spray, an ion source temperature of 500 °C and a dwell time of 150 ms were utilised for mass spectrometric detection. Multiple reaction monitoring (MRM) was used at the specific transitions for each compound/control tested: compound 5c: 361.9 → 304.9; compound 5d: 344.8 → 287.9; compound 5e: 349.8 → 292.9; compound 5 g: 350.8 → 293.9; compound 5 h: 344.0 → 286.9; compound 6a: 276.9 → 220.0; compound 5 b: 319.0 → 262.0; compound 6 b: 302.1 → 245.1; compound 6c: 344.9 → 288.0; compound 6d: 333.0 → 276.0; compound 6e: 316.1 → 259.0; compound 6f: 327.1 → 270.0; compound 6 g: 377.1 → 320.1; testosterone: 289.3→ 97.1; propranolol: 260.1 → 182.8; caffeine: 195.2 → 138.1; acebutolol: 337.2 → 116.2, nicardipine: 480.2 → 315.0; verapamil: 455.4 → 165.1; amprenavir: 506.2 → 245.4; diclofenac: 296.1 → 213.7 or 296.2 → 215.3; eucatropine: 292.2 → 109.1; benfluorex: 352.1 → 230.3, and warfarin: 309.2 → 163.2
# HCC827 [6] = assay: BrdU proliferation assay, 3D cell culture; assay type: cell-based; settings: Homo sapiens, HCC827, 3D cell culture, ±SD, N = 2
# Description: as §5, §2, §3
Structure (SMILES),IC50 (NCI-H358 [1]) [µM],IC50 (HCC827 [2]) [µM],IC50 (NCI-H358 [3]) [µM],IC50 (A549) [µM],IC50 (HCC827 [4]) [µM],"efflux ratio at 60 min, 10 µM [5]","Papp A→B at 60 min, 10 µM [5] [×10⁻⁶ cm/s]","Papp B→A at 60 min, 10 µM [5] [×10⁻⁶ cm/s]",IC50 (HCC827 [6]) [µM]
"c1ccc2sc(-c3nc4cc(C5=NCCCN5)ccc4[nH]3)cc2c1 [Compound 6d, 2-(Benzo[b]thiophen-2-yl)-5(6)–(3,4,5,6-tetrahydropyrimidin-1-ium-2-yl)benzimidazole chloride]",> 50,> 50,> 100,> 100,> 100,7.75,0.11,0.86,> 100
"Cl.c1ccc2nc(-c3nc4ccc(C5=NCCCN5)cc4s3)ccc2c1 [Compound 5d, 2-(Quinoline-2-yl)-6–(3,4,5,6-tetrahydropyrimidin-1-ium-2-yl)benzothiazole chloride]",9 ± 0.31,11 ± 0.17,40 ± 4.89,16 ± 1.3,> 100,> 158,< 0.1,15.8,32 ± 11.7
"c1ccc2c(c1)cc(-c1nc3cc(C4=NCCCN4)ccc3[nH]1)c1ccccc12 [Compound 6g, 2-(Phenanthrene-9-yl)-5(6)–(3,4,5,6-tetrahydropyrimidin-1-ium-2-yl)benzimidazole chloride]",> 50,> 50,> 100,> 100,> 100,6.6,0.02,0.2,> 100
"c1ccc(-c2nc3cc(C4=NCCCN4)ccc3[nH]2)cc1 [Compound 6a, 2-Phenyl-5(6)–(3,4,5,6-tetrahydropyrimidin-1-ium-2-yl)benzimidazole chloride]",7 ± 0.3,7 ± 0.35,17 ± 1.94,13 ± 1.46,9 ± 3.05,3.7,0.4,1.4,12 ± 0.25
"Cl.c1ccc2sc(-c3nc4ccc(C5=NCCCN5)cc4s3)cc2c1 [Compound 5e, 2-(Benzo[b]thiophen-2-yl)-6–(3,4,5,6-tetrahydropyrimidin-1-ium-2-yl)benzothiazole chloride]",9 ± 0.65,10 ± 1.21,34 ± 0.16,23 ± 6.24,22 ± 9.45,> 78,< 0.1,7.6,24 ± 7.63
"c1ccc2cc(-c3nc4cc(C5=NCCCN5)ccc4[nH]3)ccc2c1 [Compound 6f, 2-(Naphthalene-2-yl)-5(6)–(3,4,5,6-tetrahydropyrimidin-1-ium-2-yl)benzimidazole chloride]",> 50,> 50,> 100,> 100,> 100,3.23,0.78,2.49,> 100
"N#Cc1ccc(-c2nc3cc(C4=NCCCN4)ccc3[nH]2)cc1 [Compound 6b, 2–(4-Cyanophenyl)-5(6)–(3,4,5,6-tetrahydropyrimidin-1-ium-2-yl)benzimidazole chloride]",> 50,> 50,> 100,> 100,> 100,< 2,0.92,1.02,> 100
"Cl.FC(F)(F)c1ccc(-c2nc3ccc(C4=NCCCN4)cc3s2)cc1 [Compound 5c, 2–(4-Trifluoromethylphenyl)-6–(3,4,5,6-tetrahydropyrimidin-1-ium-2-yl)benzothiazole chloride]",16 ± 4.14,15 ± 2.18,34 ± 0.7,16 ± 0.65,12 ± 0.16,> 200,< 0.1,21.5,21 ± 1.41
"c1ccc2c(-c3nc4ccc(C5=NCCCN5)cc4[nH]3)c[nH]c2c1 [Compound 6e, 2-(1H-Indol-3-yl)-5(6)–(3,4,5,6-tetrahydropyrimidin-1-ium-2-yl)benzimidazole chloride]",> 50,> 50,> 100,> 100,> 100,3.89,0.57,2.17,> 100
"Cl.N#Cc1ccc(-c2nc3ccc(C4=NCCCN4)cc3s2)cc1 [Compound 5b, 2–(4-Cyanophenyl)-6–(3,4,5,6-tetrahydropyrimidin-1-ium-2-yl)benzothiazole chloride]",> 50,> 50,> 100,60 ± 1.44,> 100,35.4,0.59,20.5,> 100
"Cl.c1ccc2sc(-c3nc4ccc(C5=NCCCN5)cc4s3)nc2c1 [Compound 5g, 2-(Benzothiazole-2-yl)-6–(3,4,5,6-tetrahydropyrimidin-1-ium-2-yl)benzothiazole chloride]",13 ± 0.45,18 ± 0.76,31 ± 0.05,15 ± 1.35,17 ± 0.93,> 17,< 0.1,16.5,17 ± 0.93
